According to patent US20240390529A1, “DUAL-MODE PROBE FOR DETECTING HYDROGEN SULFIDE AND USE THEREOF” (KYUNGPOOK NATIONAL UNIVERSITY INDUSTRY-ACADEMIC COOPERATION …, priority 2022, published 2024):

How the values were obtained:
[1] = test system: H2S concentration in brain tissues; assay: Quantification of H2S in brain by methylene blue method; assay type: in vivo, mice
Experimental: The methylene blue method was used to directly measure H2S concentration in brain tissues. Briefly, PET imaging was performed, brains were harvested, weighed, and homogenized in liquid N2. An ice-cold PBS solution in a volume equivalent to the weight of the homogenate (w/v, approximately 260 to 300 mg) was added, followed by vortex for 3 min and centrifugation (14,000 rpm, 5 min, 4° C.). Then, 100 μL of the supernatant was incubated together with 100 μL of 1% zinc acetate dihydrate at 37° C. for 10 minutes to immobilize H2S. 100 μL of 0.1 M sodium tetraborate buffer (pH 9) and 200 μL of 20 mM N, N-dimethyl-p-phenylenediamine sulfate were added to 7.2 M HCl, and 200 μL of 30 mM iron (III) chloride was added to 1.2 M HCl, and the mixture was incubated at 37° C. for 15 min to form methylene blue dyes. The mixture was centrifuged again (14,000 rpm, 5 minutes, 4° C.). 100 μL of supernatant was transferred in triplicate to 96-well plates, and absorbance was recorded spectrophotometrically at 670 nm. The H2S concentration was calculated by using a standard curve obtained by plotting absorbance (A670) versus NaHS concentration (0 to 30 μM). For quantification of H2S in the left and right hemispheres of the brains, PET imaging was performed, and only the cerebral hemispheres were harvested and processed separately. […]

[2] = test system: human hepatoma cells (HepG2); assay: MTT cytotoxicity analysis, HepG2; assay type: cell-based
Experimental: (§1) The cytotoxicity of Cu-ATSM-FITC(5) was evaluated through 3-(4,5-dimethyl-2-thiazolyl)-2,5-diphenyltetrazolium bromide (MTT; sigma-aldrich) analysis. Human cervical cancer cells (HeLa), human hepatoma cells (HepG2), and human embryonic kidney cells (HEK293) were prepared in 96-well plates at a density of 10,000 cells per well. As compared to the control group treated with PBS alone, they were treated with Cu-ATSM-FITC (5) at increasing concentrations of 1, 10, and 25 μM. Afterwards, they were incubated for 1, 4, and 24 hours (37° C., 5% CO2), respectively. For each treatment time, each well was added with 10 μL of MTT (5 mg/mL in PBS) solution and incubated for 3 hours. The supernatant was carefully aspirated, and the purple insoluble formazan crystals in the wells were dissolved using DMSO for 30 minutes. Absorbance was measured at 550 nm using a spectrophotometer (SPECTROstar Nano, BMG Labtech, Ortenberg, Germany). CuS was also performed four times in a similar manner by using HeLa, HEK293, HepG2, and human brain glioblastoma (U87MG) cells.

[3] = test system: human embryonic kidney cells (HEK293); assay: MTT cytotoxicity analysis, HEK293; assay type: cell-based
Experimental: as §1

[4] = test system: human brain glioblastoma (U87MG) cells; assay: MTT cytotoxicity analysis, U87MG; assay type: cell-based
Experimental: as §1

[5] = test system: Human cervical cancer cells (HeLa); assay: MTT cytotoxicity analysis, HeLa; assay type: cell-based
Experimental: as §1

[6] = Optical properties (UV-Vis absorbance, fluorescence emission); assay type: physicochemical
Experimental: The optical properties of the free ligand ATSM-FITC (4) were evaluated. […] When H2S sequestered Cu(II) ions from the copper complex (5) and precipitated CuS, the ATSM-FITC ligand was released and fluorescence was emitted (FIG. 7).

[7] = Measurement of quantum yield versus fluorescein standard; assay type: physicochemical; conditions: compared to the fluorescein standard value
Experimental: The background levels of methanol used in the experiment were measured by using a SpectraMaxi-3 spectraphotometer, and Cu-ATSM-FITC(5) was measured at concentrations of 0.02, 0.04, 0.06, 0.08, and 0.1 μM. A fluorescein standard line graph was obtained according to the concentration and intensity of Cu-ATSM-FITC(5). The quantum yield was calculated according to the following equation: Φ=ΦST (Grad x/Grad ST) (η×2/ηST 2). Here, the subscripts ST and X represent the measured values of the standard and test solutions, respectively. In addition, Φ represents the quantum yield and η represents the refractive index of the solution.

mouse brain tissues = conditions: up to 7 days after injection of high-dose 500 μg; CuS precipitated
Experimental: Animals were anesthetized by using isoflurane, and injected with 100 μg of Cu-ATSM-FITC(5) in 100 μL of 10% DMSO/PBS, and 500 μg of Cu-ATSM-FITC(5) in 100 μL of 40% DMSO/PBS, respectively, through tail vein injection. The animals were perfused transcardially with saline 1, 3, and 7 days after the injection. The brains were dissected, fixed in 4% paraformaldehyde, and embedded in paraffin to make blocks. Serial coronal sections in paraffin with the thickness of 7 μm were obtained. The sections were stained with H&E by using a staining kit (BBC ClearView, BBC Eosin Y Alcoholic). The stained brain tissues were photographed under a Carl Ziess microscope at 400× magnification.

[8] = Fluorescence response of probe to NaHS (sensitivity, reaction rate, detection limit)
Experimental: To confirm the sensitivity, Cu-ATSM-FITC(5) was incubated with a wide range of NaHS concentrations (0-100 μM) at 37° C. and the fluorescence intensity was measured (FIG. 6B). […] When reacted with 50 μM NaHS solution, the fluorescence intensity of Cu-ATSM-FITC(5) reached a plateau within 30 seconds (FIG. 6C). In contrast, the reactivity of Cu-ATSM-FITC(5) toward L-cysteine (1 mM) and glutathione (GSH) (10 mM) was minimal, as compared to H2S, even though their concentrations were at least 20 times higher than H2S. The detection limit of Cu-ATSM-FITC(5) was calculated to be 0.20 μM using the regression equation (FIG. 8). The quantum yield was confirmed to be 0.33 according to the equation, as compared to the fluorescein standard value (FIG. 9).

H2S in HeLa cells = assay: Fluorescence imaging of exogenous and endogenous H2S in live HeLa cells; assay type: cell-based, human
Excerpt: Next, we investigated the usefulness of Cu-ATSM-FITC(5) for monitoring H2S levels in living cells (FIG. 14).

[9] = Selectivity toward competing biological species with and without H2S
Excerpt: The selectivity of Cu-ATSM-FITC(5) was investigated against a variety of potentially competing biological species in the presence and absence of H2S (FIG. 6D).

[10] = Fluorescence stability and reactivity at various pH; assay type: physicochemical; conditions: pH 5 to 10
[11] = Biodistribution in normal BALB/c mice (γ-counter); assay type: in vivo; conditions: 4 hours after administration
Experimental: BALB/c mice (male, 9 weeks old) were used to investigate the systemic distribution and clearance rate of ^64Cu-ATSM-FITC (6). ^64Cu-ATSM-FITC (6) with a radioactivity of 0.56 to 0.74 MBq in a saline solution (5% DMSO, 200 μL) was injected into mice through the tail vein under anesthesia. […] Blood was drawn, and organs comprising heart, lung, muscle, fat, bone, spleen, kidney, liver, intestine, and brain were harvested, weighed, and analyzed by using a γ-counter (Wallac Wizard 1480, PerkinElmer, France). Radioactivity was calculated as percentage of injected dose per gram (% ID/g).
The distribution of ^64Cu-ATSM-aniline in the body was confirmed by using the same method as described in Experimental Methods 5 and 7 above.

Question: With Cl.NOCC(=O)O.NOCC(=O)O [AOAA] as the compound, how does the “reduction of H2S concentration in the brain compared to controls” value ([1]; 10 mg/kg intraperitoneal, mice) read?
Answer: 32%

Question: And the “H2S concentration in the brain” value ([1]; AOAA-treated mice)?
Answer: 2.1±0.5 μg/g brain

Question: Which cytotoxicity [2] does the source give for [S]=[Cu] [CuS, copper sulfide] here?
Answer: no cytotoxicity was found

Question: What about the cytotoxicity [3] of the same compound?
Answer: no cytotoxicity was found

Question: And the cytotoxicity [4]?
Answer: no cytotoxicity was found

Question: What about the cytotoxicity ([5]; HeLa) of the same compound?
Answer: no cytotoxicity was found

Question: For CNC(=S)N/N=C(C)/C(C)=N/NC(=S)Nc1ccc(-c2c3ccc(=O)cc-3oc3cc(O)ccc23)c(C(=O)O)c1 [ATSM-FITC (4), 2-(6-hydroxy-3-oxo-3H-xanthen-9-yl)-5-((E)-2-((E)-3-(2-(methylcarbamothioyl)hydrazono)butan-2-ylidene)hydrazinecarbothioamido)benzoic Acid], which absorbance band ([6]; UV-Vis spectroscopy) is on record?
Answer: 494 nm

Question: And the maximum fluorescence emission ([6]; excitation at 480 nm)?
Answer: 524 nm

Question: Which cytotoxicity [2] does the source give for CNC([S-])=NN=C(C)C(C)=NN=C([S-])Nc1ccc(-c2c3ccc(=O)cc-3oc3cc(O)ccc23)c(C(=O)O)c1.[Cu+2] [Cu-ATSM-FITC(5), Copper(II) Complex of 2-(6-hydroxy-3-oxo-3H-xanthen-9-yl)-5-((E)-2-((E)-3-(2-(methylcarbamothioyl)hydrazono)butan-2-ylidene)hydrazinecarbothioamido)benzoic Acid] here?
Answer: No cytotoxicity was observed

Question: What about the quantum yield [7] of the same compound?
Answer: 0.33

Question: And the cytotoxicity [3]?
Answer: No cytotoxicity was observed

Question: What about the “fluorescence signal of the complex” value ([6]; without H2S) of the same compound?
Answer: did not show a detectable fluorescence signal

Question: And the “toxicity in mouse brain tissues (H&E staining)” value (mouse brain tissues)?
Answer: low toxicity

Question: What about the “time for fluorescence intensity to reach a plateau” value ([8]; 50 μM NaHS solution) of the same compound?
Answer: ≤ 30 s

Question: And the “fluorescence enhancement at 524 nm” value ([8]; 100 μM NaHS compared to concentration 0, 37° C.)?
Answer: up to 3500 fold

Question: And the “reactivity toward L-cysteine and glutathione (GSH) compared to H2S” value ([8]; L-cysteine 1 mM, GSH 10 mM)?
Answer: minimal

Question: And the detection limit ([8]; calculated using the regression equation, H2S)?
Answer: 0.20 µM

Question: What about the “detection of endogenous H2S induced by L-cysteine” value (H2S in HeLa cells; L-cysteine 100 μM) of the same compound?
Answer: successfully detected the increase in endogenous H2S concentration

Question: And the “green fluorescence intensity in HeLa cells on addition of NaHS” value (H2S in HeLa cells; NaHS 50 and 100 μM)?
Answer: linear rise in green fluorescence intensity

Question: And the “fluorescence signal in HeLa cells” value (H2S in HeLa cells; probe 25 μM, no added H2S)?
Answer: faint fluorescence signal

Question: And the “fluorescence intensity with competing species plus NaHS” value ([9]; NaHS 50 μM added with other biologically abundant species)?
Answer: full fluorescence intensity was observed without interference

Question: What about the “reactivity (fluorescence signals) with other species” value ([9]; biothiols, inorganic sulfur species, reducing agents, nucleophiles, ROS/RNS, absence of H2S) of the same compound?
Answer: did not show reactivity

Question: What about the “survival rate of HeLa cells” value ([5]; 1, 10, and 25 μM, 24 hours of incubation) of the same compound?
Answer: exceeded 85%

Question: What about the “stability and reactivity over physiological pH range” value [10] of the same compound?
Answer: high stability and reactivity

Question: Which “distribution in the brain” value [11] does the source give for CNC([S-])=NN=C(C)C(C)=NN=C([S-])Nc1ccc(N(C)C)cc1.[64Cu+2] [^64Cu-ATSM-aniline, reference compound] here?
Answer: very low

Question: What about the “organs of widest distribution” value [11] of the same compound?
Answer: lungs and liver

Question: Which “green fluorescence due to endogenous H2S after CSE blockade” value (H2S in HeLa cells; 450 μM, HeLa cells probed with Cu-ATSM-FITC(5)) does the source give for C#CCC(N)C(=O)O (racemic) [DL-propargylglycine, reference compound] here?
Answer: completely reduced
